Experimental data reported in article PMC11016868 (Computational and Structural Biotechnology Journal, 2024).
Converted amounts (≈) assume the structure as drawn.

Test system: M. marinum (NTUH-M6885)
Assay: Minimum inhibitory concentration, broth microdilution
Assay type: cell-based
Settings: Mycobacterium marinum, 7H9 broth, 28 °C

Structure (SMILES)	MIC
O=C(O)c1cn(C2CC2)c2cc(N3CCNCC3)c(F)cc2c1=O [ciprofloxacin]	8 µg/mL (≈ 24.1 µM)
CO[C@H]1/C=C/O[C@@]2(C)Oc3c(C)c(O)c4c(O)c(c(/C=N/N5CCN(C)CC5)c(O)c4c3C2=O)NC(=O)/C(C)=C\C=C\[C@H](C)[C@H](O)[C@@H](C)[C@@H](O)[C@@H](C)[C@H](OC(C)=O)[C@@H]1C [rifampicin]	2 µg/mL (≈ 2.43 µM)
